Experimental findings from patent US9540338B2, “Substituted cinnamic acid amides for treating pain” (NIPPON ZOKI PHARMACEUTICAL CO., LTD., priority 2012, dated 2017) are described below.

Where a name gives a salt, the structure may show the parent alone. Marks after values point to notes of the source that are not given here.

Series [1] deals with Chung model rat. Put plainly: Analgesic efficacy test (2): Chung model rat, neuropathic pain model (allodynia, von Frey filament). It is filed as in vivo, rats. The note with it: mean ± standard error. The method, then: An analgesic efficacy test was conducted using a Chung model rat, a neuropathic pain model. Nine-week old Wistar male rats were previously bred as an experimental animal, and a model rat was then prepared in accordance with the method of Kim and Chung (Pain, 50, 355-363, 1992). Specifically, left L5 spinal nerves of rats were exposed under anesthetization with pentobarbital (40 mg/kg, intraperitoneal administration), and firmly ligated with 5-0 silk yarn at L5 dorsal root ganglion peripheral side. The animals were placed in a transparent acrylic cage of which bottom was wire netted The measurement of allodynia was carried out using von Frey filament (manufactured by North Coast Medical Inc.) and a 50% reaction threshold was calculated according to an up-down method, in accordance with a method of Chaplan et al. (J. Neurosci. Method, 53, 55-63, 1994). The 50% reaction thresholds were measured twice before injury of the spinal nerve, and those animals of which thresholds were outside the standard were removed from the operation of spinal nerve injury. On or after 14 days from the spinal nerve injury, a 50% reaction threshold was measured, and those showing thresholds of 1 g or more and less than 4 g were used as experimental animal. The group was constituted by 7 or 8 rats per group so that an average of a 50% reaction threshold for each group would be nearly even.
A solution or suspension prepared by dissolving or suspending a compound of the present invention in a 0.5% (w/v) aqueous CMC-Na solution was orally administered as a test substance in a single dose. Also, a 0.5% (w/v) aqueous CMC-Na solution was administered in the same manner to the control group for nerve injury. The measurements of allodynia were carried out with the passage of time after administration, and a 50% reaction threshold (mean±standard error) of each group at action peak was calculated. In the test for significance difference, Bartlett's test was carried out in the comparison between multiple groups of the group administered with test substance with the control group for nerve injury. In the case of homoscedasticity, Dunnett's multiple comparison test of parametrics, and in the case of heteroscedasticity, Dunnett's multiple comparison test of non-parametrics were used. In all cases, significance difference was considered to be found at P<0.05 (indicated as “*” in the tables).

Series [2] deals with ddY-type mice. Put plainly: Analgesic efficacy test (1): acetic acid writhing test. The class given is in vivo. The note with it: Mus musculus, writhing number, mean ± standard error, 8 mice per group, read-out: Suppressive Rate; for inhibition in vivo at 10 mg/kg: oral single dose 10 mg/kg; for inhibition in vivo at 100 mg/kg: oral single dose 100 mg/kg. From the text: A compound of the present invention was orally administered to mice, to carry out an analgesic efficacy test according to acetic acid writhing test. As an experimental animal, 4-week old male ddY-type mice were previously bred, and thereafter 8 mice per one group were used in the experiment. A solution or suspension prepared by dissolving or suspending a compound of the present invention in a 0.5% (w/v) aqueous CMC-Na solution was orally administered as a test substance in a single dose. While, to a control group, a 0.5% (w/v) aqueous CMC-Na solution was administered in the same manner After 25 minutes from administration, the mice were intraperitoneally administered with a 0.7% (v/v) acetic acid/physiological saline at the dose of 10 mL/kg. From 5 minutes thereafter, writhing number in a 10-minute period was counted, and a suppressive rate for each individual (mean±standard error) was calculated by the following formula: […]
In the test for significance difference, Bartlett's test was carried out in the comparison between multiple groups of the group administered with test substance with the control group. In the case of homoscedasticity, Dunnett's multiple comparison test of parametrics, and in the case of heteroscedasticity, Dunnett's multiple comparison test of non-parametrics were used. In addition, in the test of dose dependency, Jonckheere-Terpstra's test was used. In all cases, significance difference was considered to be found at P<0.05 (indicated as “*” in the table).

[3] abbreviates: oral 1 mg/kg, measurement point 90 minute (action peak).
Where [4] appears, read: oral 10 mg/kg, measurement point 90 minute (action peak).
[5] abbreviates: oral 1 mg/kg, measurement point 60 minute (action peak).
Setting [6] is: oral 10 mg/kg, measurement point 60 minute (action peak).
The mark [7] stands for this setting: oral 1 mg/kg, measurement point 30 minute (action peak).
Setting [8] is: oral 10 mg/kg, measurement point 30 minute (action peak).

Regarding `O=C(/C=C/c1ccccc1F)NCCc1c[nH]c2ccccc12` [Compound 1, (E)-3-(2-Fluorophenyl)-N-[2-(1H-indol-3-yl)ethyl]-2-propenamide], the figures for the “50% Reaction Threshold, Group Administered with Test Substance, After Administration” value (“50% Reaction Threshold” below) in series [1] (setting [3]) and in series [1] (setting [4]) were 6.71 ± 1.33 g and 14.06 ± 0.61* g, respectively. Also, the inhibition in vivo at 10 mg/kg in series [2] was 46.9 ± 7.6%. For the same molecule, the inhibition in vivo at 100 mg/kg in series [2] came to 62.7 ± 6%.

Consider `CN1CCN(CCCNC(=O)/C=C/c2ccccc2F)CC1` [Compound 15, (E)-3-(2-Fluorophenyl)-N-[3-(4-methylpiperazin-1-yl)propyl]-2-propenamide dihydrochloride], for which the “50% Reaction Threshold” value in series [1] (setting [3]) is reported as 7.45 ± 1.95* g. Moreover, in series [1] (setting [4]), the “50% Reaction Threshold” value is recorded as 7.43 ± 1.63* g. In series [2], the inhibition in vivo at 10 mg/kg was 24.3 ± 12.7% and the inhibition in vivo at 100 mg/kg was determined as 44.1 ± 6.6%.

As for `O=C(/C=C/c1cc(F)ccc1F)NCCCN1CCOCC1` [Compound 29, (E)-3-(2,5-Difluorophenyl)-N-(3-morpholinopropyl)-2-propenamide], the melting point (usually the temperature, or range, at which the solid turns liquid) was in the range of 71 to 72 °C. The “50% Reaction Threshold” value in series [1] (setting [5]) is listed as 5.10 ± 0.42 g. In addition, the “50% Reaction Threshold” value in series [1] (setting [6]) is given as 10.51 ± 1.15* g.

As for `O=C(/C=C/c1ccc(F)cc1)Nc1ccc(N2CCOCC2)cc1` [Compound 33, (E)-3-(4-Fluorophenyl)-N-[4-morpholinophenyl]-2-propenamide], the melting point fell in the range of 223 to 224 °C. In addition, the “50% Reaction Threshold” value in series [1] (setting [5]) is given as 8.93 ± 1.46* g. For the same molecule, the “50% Reaction Threshold” value in series [1] (setting [6]) is listed as 9.35 ± 2.10* g.

The molecule `O=C(/C=C/c1ccccc1F)NCCn1cccn1` [Compound 38, (E)-3-(2-Fluorophenyl)-N-[2-(pyrazol-1-yl)ethyl]-2-propenamide] came in with a melting point of 124 to 126 °C. In series [1] (setting [3]), the “50% Reaction Threshold” value was determined as 2.74 ± 0.23 g. In series [1] (setting [4]), the “50% Reaction Threshold” value was 4.06 ± 0.52* g.

On to `O=C(/C=C/c1ccccc1F)NCCn1ccnn1` [Compound 40, (E)-3-(2-Fluorophenyl)-N-[2-([1,2,3]triazol-1-yl)ethyl]-2-propenamide], for which the melting point was in the range of 110 to 112 °C. Further, in series [1] (setting [5]), the “50% Reaction Threshold” value was determined as 3.61 ± 0.41 g. For the same molecule, in series [1] (setting [6]), the “50% Reaction Threshold” value was 5.86 ± 1.17* g.

`Cc1nccn1CCNC(=O)/C=C/c1ccccc1F` [Compound 42, (E)-3-(2-Fluorophenyl)-N-[2-(2-methylimidazol-1-yl)ethyl]-2-propenamide]: the melting point was in the range of 127 to 129 °C. Moreover, the “50% Reaction Threshold” value in series [1] (setting [7]) turned out to be 2.60 ± 0.32 g. Besides, the “50% Reaction Threshold” value in series [1] (setting [8]) was 4.24 ± 0.35* g.

Molecule `C/C(=C\c1ccc(F)cc1)C(=O)NCCCN1CCOCC1` [Compound 46, (E)-3-(4-Fluorophenyl)-2-methyl-N-(3-morpholinopropyl)-2-propenamide] showed a melting point of 78 to 79 °C. For the same molecule, the “50% Reaction Threshold” value in series [1] (setting [7]) is recorded as 7.51 ± 1.60* g. In series [1] (setting [8]), the “50% Reaction Threshold” value is 8.70 ± 1.43* g.

As to `O=C(/C=C/c1ccccc1F)Nc1cccc(-c2ccno2)c1` [Compound 54, (E)-3-(2-Fluorophenyl)-N-[3-(isoxazol-5-yl)phenyl]-2-propenamide], the melting point was in the range of 185 to 187 °C. For the same molecule, the “50% Reaction Threshold” value in series [1] (setting [7]) is reported as 5.18 ± 0.81 g. For the same molecule, the “50% Reaction Threshold” value in series [1] (setting [8]) was 11.20 ± 1.19* g.

As to `O=C(/C=C/c1ccc(F)cc1)NCCCN1CCSCC1` [Compound 60, (E)-3-(4-Fluorophenyl)-N-(3-thiomorpholinopropyl)-2-propenamide], the melting point is 121 to 122 °C. Further, the “50% Reaction Threshold” value in series [1] (setting [7]) is 4.03 ± 0.54 g. The “50% Reaction Threshold” value in series [1] (setting [8]) is 8.45 ± 1.01* g.

Molecule `Cl.O=C(/C=C/c1ccccc1F)NCCCN1CCSCC1` [Compound 61, (E)-3-(2-Fluorophenyl)-N-(3-thiomorpholinopropyl)-2-propenamide hydrochloride] came in with a melting point of 178 to 179 °C. Moreover, in series [1] (setting [5]), the “50% Reaction Threshold” value is 10.64 ± 1.38* g. In addition, the “50% Reaction Threshold” value in series [1] (setting [6]) was 11.81 ± 1.47* g.

Consider `Cl.O=C(/C=C/c1ccccc1F)NCCCN1CCS(=O)(=O)CC1` [Compound 62, (E)-N-[3-(1,1-Dioxo-1,4-thiazinan-4-yl)propyl]-3-(2-fluorophenyl)-2-propenamide hydrochloride], for which the melting point was in the range of 252 to 253 °C. For the same molecule, the “50% Reaction Threshold” value in series [1] (setting [3]) is recorded as 6.17 ± 1.33 g. For the same molecule, the “50% Reaction Threshold” value in series [1] (setting [4]) is recorded as 9.22 ± 1.28* g.

Molecule `Cl.O=C(/C=C/c1ccc(F)cc1)NCCCN1CCS(=O)(=O)CC1` [Compound 63, (E)-N-[3-(1,1-Dioxo-1,4-thiazinan-4-yl)propyl]-3-(4-fluorophenyl)-2-propenamide hydrochloride] registered a melting point of 247 to 248 °C. The “50% Reaction Threshold” value in series [1] (setting [3]) came to 3.60 ± 0.35 g. The “50% Reaction Threshold” value in series [1] (setting [4]) is on record as 6.74 ± 0.62* g.

`Cl.N=C(N)NCCCCNC(=O)/C=C/c1ccccc1F` [Compound 65, (E)-3-(2-Fluorophenyl)-N-(4-guanidinobutyl)-2-propenamide hydrochloride] returned a melting point of 154 to 156 °C. For the same molecule, the “50% Reaction Threshold” value in series [1] (setting [5]) is 5.01 ± 0.52* g. Besides, the “50% Reaction Threshold” value in series [1] (setting [6]) is on record as 5.24 ± 0.47* g.

The molecule `O=C(/C=C/c1ccc(F)cc1)NCCCN1CC[S+]([O-])CC1` [Compound 67, (E)-3-(4-Fluorophenyl)-N-[3-(1-oxo-1,4-thiazinan-4-yl)propyl]-2-propenamide] showed a melting point of 130 to 131 °C. Further, in series [1] (setting [5]), the “50% Reaction Threshold” value is reported as 10.63 ± 1.23* g. Further, the “50% Reaction Threshold” value in series [1] (setting [6]) is 10.71 ± 2.13* g.

Molecule `Cl.O=C(/C=C/c1ccccc1F)NCCCN1CC[S+]([O-])CC1` [Compound 68, (E)-3-(2-Fluorophenyl)-N-[3-(1-oxo-1,4-thiazinan-4-yl)propyl]-2-propenamide hydrochloride] registered a melting point of 182 to 183 °C. For the same molecule, the “50% Reaction Threshold” value in series [1] (setting [3]) is reported as 9.04 ± 1.17* g. In series [1] (setting [4]), the “50% Reaction Threshold” value is reported as 11.25 ± 0.94* g.

As to `O=C(/C=C/c1ccccc1F)NCc1cccc(N2CCSCC2)c1` [Compound 69, (E)-3-(2-Fluorophenyl)-N-[(3-thiomorpholinophenyl)methyl]-2-propenamide], the melting point lay in the range of 154 to 155 °C. For the same molecule, the “50% Reaction Threshold” value in series [1] (setting [5]) is reported as 3.68 ± 0.40* g. The “50% Reaction Threshold” value in series [1] (setting [6]) is listed as 4.35 ± 0.51* g.

Molecule `O=C(/C=C/c1ccccc1F)NCc1cccc(N2CC[S+]([O-])CC2)c1` [Compound 70, (E)-3-(2-Fluorophenyl)-N-{[3-(oxo-1,4-thiazinan-4-yl)phenyl]methyl}-2-propenamide] returned a melting point of 156 to 157 °C. Further, the “50% Reaction Threshold” value in series [1] (setting [5]) is 4.09 ± 0.34* g. In series [1] (setting [6]), the “50% Reaction Threshold” value was 3.41 ± 0.31* g.
